Experiment [1] relates to phospho-akt (Thr308) in PC-3 cells. Description: Inhibition of phospho-akt (Thr308) in PC-3 cells, MSD phospho-akt 308 ELISA kit. In kind it is cell-based. The conditions noted are these: Homo sapiens, 2 hours, no serum, read-out: EC50. In a few lines:
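Phospho-Akt (Thr308) levels were measured by MSD ELISA after PC-3 cells received compound for 2 hours in serum-free medium. Controls: DMSO (high), 5 μM wortmannin (low).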

Another experiment concerns the target PDK1 (Homo sapiens (Human), UniProt O15530). The experiment in a line: PDK1 kinase assay (coupled PDK1/AKT/FAM-crosstide assay, IMAP fluorescence polarization). In kind it is biochemical. The essentials:
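GST-tagged PDK1 (aa 51-359, 0.75 nM) was coupled to unphosphorylated GST-AKT2 140-467-PIFtide (10 nM) and 100 nM FAM-crosstide at 40 μM ATP, in Tris pH 7.2 buffer, for 30 min at 25 °C. Crosstide phosphorylation was read by IMAP fluorescence polarization (ΔmP) and fitted with a 4-parameter curve.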
A general note: Fluorescence polarisation rises when a labelled molecule tumbles more slowly, as on binding a larger partner.

Setting [2] is: inhibition of P308 Akt in PC-3 cells using MSD.
Where [3] appears, read: PC-3, 2 h, inhibition of P308 Akt in PC-3 cells, MSD.
The mark [4] stands for this setting: inhibition of phospo-PDK1 in vitro.
Where [5] appears, read: inhibition of P308 Akt in PC-3 cells, MSD.
Where [6] appears, read: PC-3, 2 h, inhibition of P308 Akt in PC-3 cells using MSD.

The text below walks through data of US10030016B2 (Sunesis Pharmaceuticals, Inc., priority 2009, dated 2018).

The term EC50 denotes the concentration at which the effect is half-maximal. As usually defined, the IC50 is the point on the concentration scale where inhibition reaches its midpoint.

Structures can show the parent of a compound that is named as a salt. Where two headings read alike, the source gives them in different places.

Sequence of PDK1 (O15530 51-359): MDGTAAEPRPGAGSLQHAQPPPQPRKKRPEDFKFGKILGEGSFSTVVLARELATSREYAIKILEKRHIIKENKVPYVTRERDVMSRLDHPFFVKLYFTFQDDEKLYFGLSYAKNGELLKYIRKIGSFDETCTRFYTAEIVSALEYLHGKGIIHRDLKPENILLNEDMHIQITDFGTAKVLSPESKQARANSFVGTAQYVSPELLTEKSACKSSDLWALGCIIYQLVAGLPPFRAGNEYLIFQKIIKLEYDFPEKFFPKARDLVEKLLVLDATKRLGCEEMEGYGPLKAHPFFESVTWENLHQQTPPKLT

Regarding `C[C@H](NC(=O)c1cc(C#N)cnc1NCc1ccc(-c2cnc(N)c(C(=O)NCCCN(C)C)n2)cc1)c1ccc(F)cc1` [Example 211], the EC50 in experiment [1] (setting [2]) fell in the range of 1000 to 10000 nM. At PDK1 (inhibition of PDK1 in vitro), this compound registered an IC50 of less than 100 nM.

For the compound `Nc1ncc(-c2ccc(CNc3ncc(C(F)(F)F)cc3C(=O)Nc3ccc(F)cc3)cc2)nc1N1CCNCC1` [Example 193, 2-[4-(3′-Amino-3,4,5,6-tetrahydro-2H-[1,2′]bipyrazinyl-6′-yl)-benzylamino]-N-(4-fluoro-phenyl)-5-trifluoromethyl-nicotinamide], the EC50 in experiment [1] (setting [2]) lay within 1000 to 10000 nM. The compound further returned an IC50 against PDK1 (inhibition of PDK1 in vitro) of less than 100 nM.

Take `C[C@H](NC(=O)c1cc(C(F)(F)F)cnc1NCc1ccc(-c2cnc(N)cn2)cc1)c1ccc(F)cc1` [Example 379, (S)-2-(4-(5-aminopyrazin-2-yl)benzylamino)-N-(1-(4-fluorophenyl)ethyl)-5-(trifluoromethyl)nicotinamide]: the EC50 in experiment [1] (setting [2]) is less than 1000 nM. The compound also registered an IC50 on PDK1 (inhibition of PDK1 in vitro) of less than 100 nM.

Regarding `CN(C)CCNC(=O)c1cnc(NCc2ccc(-c3ccc4ncnc(N)c4c3)s2)c(C(=O)NCc2ccc(F)c(F)c2)c1` [Example 7.24.2, 2-({[5-(4-aminoquinazolin-6-yl)thiophen-2-yl]methyl}amino)-N^3-(3,4-difluorobenzyl)-N^5-[2-(dimethylamino)ethyl] pyridine-3,5-dicarboxamide], the EC50 in experiment [1] (setting [3]) lay in the range of 1000 to 10000 nM. Besides, the IC50 on PDK1 (setting [4]) was 100 to 1000 nM.

For the compound `CCNS(=O)(=O)c1cnc(NCc2ccc(-c3ccc4ncnc(N)c4c3)s2)c(C(=O)NCc2ccc(F)c(F)c2)c1` [Example 8.7.11, 2-({[5-(4-aminoquinazolin-6-yl)thiophen-2-yl]methyl}amino)-N-(3,4-difluorobenzyl)-5-(ethylsulfamoyl)pyridine-3-carboxamide], the EC50 in experiment [1] (setting [5]) was less than 1000 nM. In addition, the IC50 against PDK1 (setting [4]) is 100 to 1000 nM.

Consider `N#Cc1ccc(NC(=O)c2cccnc2NCc2ccc(-c3ccc4ncnc(N)c4c3)s2)cc1` [Example 3.33, 2-({[5-(4-aminoquinazolin-6-yl)thiophen-2-yl]methyl}amino)-N-(4-cyanophenyl)pyridine-3-carboxamide (TFA salt)], for which the EC50 in experiment [1] (setting [3]) is more than 10000 nM. The compound also displayed an IC50 against PDK1 (setting [4]) of 100 to 1000 nM.

For `C[C@H](NC(=O)c1cc(C#N)cnc1NCc1ccc(-c2cnc(N)c(CCCN)n2)cc1)c1ccc(F)cc1` [Example 70, 2-{4-[5-Amino-6-(3-amino-propyl)-pyrazin-2-yl]-benzylamino}-5-cyano-N-[(S)-1-(4-fluoro-phenyl)-ethyl]-nicotinamide], the EC50 in experiment [1] (setting [2]) was less than 1000 nM. For the same compound, on PDK1 (inhibition of PDK1 in vitro), the IC50 is less than 100 nM.

Take `C[C@H](NC(=O)c1nc(C#N)cnc1NCc1ccc(-c2cnc(N)c(CCC(C)(C)N)n2)cc1)c1ccc(F)c(F)c1` [Example 84, 3-{4-[5-Amino-6-(3-amino-3-methyl-butyl)-pyrazin-2-yl]-benzylamino}-6-cyano-pyrazine-2-carboxylic acid [(S)-1-(3,4-difluoro-phenyl)-ethyl]-amide]: in experiment [1] (setting [2]), the EC50 is less than 1000 nM. In addition, the IC50 on PDK1 (inhibition of PDK1 in vitro) is less than 100 nM.

For the compound `Nc1ncnc2ccc(-c3ccc(CNc4nccnc4C(=O)NCc4cc(F)c(F)c(F)c4)s3)cc12` [Example 3.71, 3-({[5-(4-aminoquinazolin-6-yl)thiophen-2-yl]methyl}amino)-N-(3,4,5-trifluorobenzyl)pyrazine-2-carboxamide (TFA salt)], in experiment [1] (setting [5]), the half-maximal effective concentration (EC50) is less than 1000 nM. This compound also gave an IC50 against PDK1 (setting [4]) of less than 100 nM.

For the compound `C[C@@H](Nc1ncc(C(F)(F)F)cc1C(=O)Nc1ccc(F)cc1)c1ccc(-c2cnc3[nH]nc(N)c3c2)cc1` [Example 422, 2-{(R)-1-[4-(3-Amino-1H-pyrazolo[3,4-b]pyridin-5-yl)-phenyl]-ethylamino}-N-(4-fluoro-phenyl)-5-trifluoromethyl-nicotinamide], the EC50 in experiment [1] (setting [2]) is less than 1000 nM. The IC50 against PDK1 (inhibition of PDK1 in vitro) is less than 100 nM.

Take `C[C@H](NC(=O)c1cccnc1NCc1ccc(-c2cn(C)c3ncnc(N)c23)cc1)c1ccc(F)c(F)c1` [Example 2.38, 2-[4-(4-Amino-7-methyl-7H-pyrrolo[2,3-d]pyrimidin-5-yl)-benzylamino]-N-[(S)-1-(3,4-difluoro-phenyl)-ethyl]-nicotinamide]: the EC50 in experiment [1] (setting [5]) lay in the range of 1000 to 10000 nM. For the same compound, at PDK1 (setting [4]), the IC50 was less than 100 nM.

Consider `C[C@H](NC(=O)c1cc(C#N)cnc1NCc1ccc(-c2cnc(N)c(CCCN)n2)nc1)c1ccc(F)cc1` [Example 74, 2-({6-[5-Amino-6-(3-amino-propyl)-pyrazin-2-yl]-pyridin-3-ylmethyl}-amino)-5-cyano-N-[(S)-1-(4-fluoro-phenyl)-ethyl]-nicotinamide], for which the EC50 in experiment [1] (setting [6]) was in the range of 1000 to 10000 nM. For the same compound, the IC50 against PDK1 (inhibition of PDK1 in vitro) lay in the range of 100 to 1000 nM.

Take `COCCCc1nc(-c2ccc(CNc3ncc(C#N)cc3C(=O)N[C@@H](C)c3ccc(F)cc3)cc2)cnc1N` [Example 92, 2-{4-[5-Amino-6-(3-methoxy-propyl)-pyrazin-2-yl]-benzyl-amino}-5-cyano-N-[(S)-1-(4-fluoro-phenyl)-ethyl]-nicotinamide]: the EC50 in experiment [1] (setting [2]) lay in the range of 1000 to 10000 nM. The IC50 against PDK1 (inhibition of PDK1 in vitro) is less than 100 nM.

Regarding `O=C(NCc1ccc(F)c(F)c1)c1cc(C(F)(F)F)cnc1NCc1ccc(-c2cnc(NCCCO)cn2)cc1` [Example 231, N-(3,4-Difluoro-benzyl)-2-{4-[5-(3-hydroxy-propylamino)-pyrazin-2-yl]-benzylamino}-5-trifluoromethyl-nicotinamide], in experiment [1] (setting [6]), the EC50 lay in the range of 1000 to 10000 nM. On PDK1 (inhibition of PDK1 in vitro), this compound registered an IC50 of 100 to 1000 nM.

As to `CNC(=O)c1cc(S(=O)(=O)NCCCN(C)C)cnc1NCc1ccc(-c2ccc3ncnc(N)c3c2)s1` [Example 341], the EC50 in experiment [1] (setting [2]) is more than 10000 nM. Moreover, the IC50 against PDK1 (inhibition of PDK1 in vitro) was more than 5000 nM.

Take `O=C(NCc1ccc(F)c(F)c1)c1cccnc1NCc1cc(-c2c[nH]c3ncccc23)cs1` [Ex. 6.15, N-(3,4-difluorobenzyl)-2-({[4-(1H-pyrrolo[2,3-b]pyridin-3-yl)thiophen-2-yl]-methyl}amino) pyridine-3-carboxamide]: the EC50 in experiment [1] (setting [5]) is more than 10000 nM. This compound also registered an IC50 at PDK1 (setting [4]) of 100 to 1000 nM.

Consider `Cc1cc(CNc2ncc(C#N)cc2C(=O)N[C@@H](C)c2ccc(F)cc2)ccc1-c1cnc2[nH]nc(N)c2c1` [Example 408, 2-[4-(3-Amino-1H-pyrazolo [3,4-b]pyridin-5-yl)-3-methyl-benzylamino]-5-cyano-N-[(S)-1-(4-fluoro-phenyl)-ethyl]-nicotinamide], for which the EC50 in experiment [1] (setting [2]) lay in the range of 1000 to 10000 nM. At PDK1 (inhibition of PDK1 in vitro), this compound yielded an IC50 of less than 100 nM.

`Nc1ncnc2ccc(-c3ccccc3CNc3ncccc3C(=O)NCc3ccc(F)c(F)c3)cc12` [Ex. 6.5, 2-{[2-(4-aminoquinazolin-6-yl)benzyl]amino}-N-(3,4-difluorobenzyl) pyridine-3-carboxamide]: in experiment [1] (setting [5]), the EC50 fell in the range of 1000 to 10000 nM. This compound also had an IC50 at PDK1 (setting [4]) of more than 5000 nM.

In the case of `C[C@H](NC(=O)c1cc(F)cnc1NCc1ccc(-c2cc3c(N)ncnc3cn2)s1)c1ccc(F)cc1`, the EC50 in experiment [1] (setting [5]) lay in the range of 1000 to 10000 nM. This compound also gave an IC50 against PDK1 (setting [4]) of 100 to 1000 nM.

For `CNc1n[nH]c2ncc(-c3ccc(CNc4ncc(C#N)nc4C(=O)N[C@@H](C)c4ccc(F)c(F)c4)cc3)cc12` [Example 52, (S)-6-cyano-N-(1-(3,4-difluorophenyl)ethyl)-3-(4-(3-(methylamino)-1H-pyrazolo[3,4-b]pyridin-5-yl)benzylamino)pyrazine-2-carboxamide], in experiment [1] (setting [2]), the EC50 is less than 1000 nM. The same compound returned an IC50 at PDK1 (inhibition of PDK1 in vitro) of less than 100 nM.

For `Nc1n[nH]c2ncc(-c3ccc(CNc4ncc(C(F)(F)F)cc4C(=O)NC4CCCCC4)cc3)cc12` [Example 297, 2-(4-(3-amino-1H-pyrazolo [3,4-b]pyridin-5-yl)benzylamino)-N-cyclohexyl-5-(trifluoromethyl)nicotinamide], the EC50 in experiment [1] (setting [2]) was less than 1000 nM. Further, on PDK1 (inhibition of PDK1 in vitro), the IC50 was less than 100 nM.

Consider `C[C@H](NC(=O)c1nc(C#N)cnc1NCc1ccc(-c2ccn3ncnc(N)c23)cc1)c1ccc(F)c(F)c1` [Example 175, 3-[4-(4-Amino-pyrrolo [2,1-f][1,2,4]triazin-5-yl)-benzylamino]-6-cyano-pyrazine-2-carboxylic acid [(S)-1-(3,4-difluoro-phenyl)-ethyl]-amide], for which the EC50 in experiment [1] (setting [2]) was less than 1000 nM. In addition, the IC50 at PDK1 (inhibition of PDK1 in vitro) was less than 100 nM.

As for `Nc1n[nH]c2ncc(-c3ccc(CNc4ncc(C(F)(F)F)cc4C(=O)Nc4cncc(F)c4)cc3)cc12` [Example 306, 2-(4-(3-amino-1H-pyrazolo [3,4-b]pyridin-5-yl)benzylamino)-N-(5-fluoropyridin-3-yl)-5-(trifluoromethyl)nicotinamide], the EC50 in experiment [1] (setting [2]) was less than 1000 nM. Also, at PDK1 (inhibition of PDK1 in vitro), the IC50 is less than 100 nM.

With `COCCCNc1cnc(-c2ccc(CNc3ncc(C#N)cc3C(=O)N[C@@H](C)c3ccc(F)cc3)cc2)cn1` [Example 228, 5-Cyano-N-[(S)-1-(4-fluoro-phenyl)-ethyl]-2-{4-[5-(3-methoxy-propylamino)-pyrazin-2-yl]-benzylamino}-nicotinamide], the EC50 in experiment [1] (setting [2]) is more than 10000 nM. At PDK1 (inhibition of PDK1 in vitro), this compound returned an IC50 of 1000 to 5000 nM.

Regarding `C[C@H](NC(=O)c1nc(C#N)cnc1NCc1ccc(-c2cnc(N)c(O[C@H]3CCNC3)n2)cc1)c1ccc(F)c(F)c1` [Example 164, 3-{4-[5-Amino-6-((S)-pyrrolidin-3-yloxy)-pyrazin-2-yl]-benzylamino}-6-cyano-pyrazine-2-carboxylic acid [(S)-1-(3,4-difluoro-phenyl)-ethyl]-amide], the EC50 in experiment [1] (setting [2]) is less than 1000 nM. For the same compound, at PDK1 (inhibition of PDK1 in vitro), the IC50 is less than 100 nM.
